Measured values: US12559506B2, “Indazole based compounds and associated methods of use” (Arvinas Operations, Inc., priority 2021, dated 2026)
Like-named read-outs stand apart in the source and are kept apart here.

Assays:
[1] = target: T1, G2019S LRRK2 (Homo sapiens, UniProt Q5S007, G2019S); assay: LRRK2 degradation assay, HiBit-tagged G2019S LRRK2 expressed from plasmid in HEK293 cells (Nano-Glo Dual-Luciferase); format: cell-based; details: 24 hours
T1 construct: expressed in transfected cells; host or cells: HEK293 (ATCC CRL-1573), transient transfection, mammalian expression vector with ubiquitin promoter
T1 sequence (Q5S007 whole entry G2019S): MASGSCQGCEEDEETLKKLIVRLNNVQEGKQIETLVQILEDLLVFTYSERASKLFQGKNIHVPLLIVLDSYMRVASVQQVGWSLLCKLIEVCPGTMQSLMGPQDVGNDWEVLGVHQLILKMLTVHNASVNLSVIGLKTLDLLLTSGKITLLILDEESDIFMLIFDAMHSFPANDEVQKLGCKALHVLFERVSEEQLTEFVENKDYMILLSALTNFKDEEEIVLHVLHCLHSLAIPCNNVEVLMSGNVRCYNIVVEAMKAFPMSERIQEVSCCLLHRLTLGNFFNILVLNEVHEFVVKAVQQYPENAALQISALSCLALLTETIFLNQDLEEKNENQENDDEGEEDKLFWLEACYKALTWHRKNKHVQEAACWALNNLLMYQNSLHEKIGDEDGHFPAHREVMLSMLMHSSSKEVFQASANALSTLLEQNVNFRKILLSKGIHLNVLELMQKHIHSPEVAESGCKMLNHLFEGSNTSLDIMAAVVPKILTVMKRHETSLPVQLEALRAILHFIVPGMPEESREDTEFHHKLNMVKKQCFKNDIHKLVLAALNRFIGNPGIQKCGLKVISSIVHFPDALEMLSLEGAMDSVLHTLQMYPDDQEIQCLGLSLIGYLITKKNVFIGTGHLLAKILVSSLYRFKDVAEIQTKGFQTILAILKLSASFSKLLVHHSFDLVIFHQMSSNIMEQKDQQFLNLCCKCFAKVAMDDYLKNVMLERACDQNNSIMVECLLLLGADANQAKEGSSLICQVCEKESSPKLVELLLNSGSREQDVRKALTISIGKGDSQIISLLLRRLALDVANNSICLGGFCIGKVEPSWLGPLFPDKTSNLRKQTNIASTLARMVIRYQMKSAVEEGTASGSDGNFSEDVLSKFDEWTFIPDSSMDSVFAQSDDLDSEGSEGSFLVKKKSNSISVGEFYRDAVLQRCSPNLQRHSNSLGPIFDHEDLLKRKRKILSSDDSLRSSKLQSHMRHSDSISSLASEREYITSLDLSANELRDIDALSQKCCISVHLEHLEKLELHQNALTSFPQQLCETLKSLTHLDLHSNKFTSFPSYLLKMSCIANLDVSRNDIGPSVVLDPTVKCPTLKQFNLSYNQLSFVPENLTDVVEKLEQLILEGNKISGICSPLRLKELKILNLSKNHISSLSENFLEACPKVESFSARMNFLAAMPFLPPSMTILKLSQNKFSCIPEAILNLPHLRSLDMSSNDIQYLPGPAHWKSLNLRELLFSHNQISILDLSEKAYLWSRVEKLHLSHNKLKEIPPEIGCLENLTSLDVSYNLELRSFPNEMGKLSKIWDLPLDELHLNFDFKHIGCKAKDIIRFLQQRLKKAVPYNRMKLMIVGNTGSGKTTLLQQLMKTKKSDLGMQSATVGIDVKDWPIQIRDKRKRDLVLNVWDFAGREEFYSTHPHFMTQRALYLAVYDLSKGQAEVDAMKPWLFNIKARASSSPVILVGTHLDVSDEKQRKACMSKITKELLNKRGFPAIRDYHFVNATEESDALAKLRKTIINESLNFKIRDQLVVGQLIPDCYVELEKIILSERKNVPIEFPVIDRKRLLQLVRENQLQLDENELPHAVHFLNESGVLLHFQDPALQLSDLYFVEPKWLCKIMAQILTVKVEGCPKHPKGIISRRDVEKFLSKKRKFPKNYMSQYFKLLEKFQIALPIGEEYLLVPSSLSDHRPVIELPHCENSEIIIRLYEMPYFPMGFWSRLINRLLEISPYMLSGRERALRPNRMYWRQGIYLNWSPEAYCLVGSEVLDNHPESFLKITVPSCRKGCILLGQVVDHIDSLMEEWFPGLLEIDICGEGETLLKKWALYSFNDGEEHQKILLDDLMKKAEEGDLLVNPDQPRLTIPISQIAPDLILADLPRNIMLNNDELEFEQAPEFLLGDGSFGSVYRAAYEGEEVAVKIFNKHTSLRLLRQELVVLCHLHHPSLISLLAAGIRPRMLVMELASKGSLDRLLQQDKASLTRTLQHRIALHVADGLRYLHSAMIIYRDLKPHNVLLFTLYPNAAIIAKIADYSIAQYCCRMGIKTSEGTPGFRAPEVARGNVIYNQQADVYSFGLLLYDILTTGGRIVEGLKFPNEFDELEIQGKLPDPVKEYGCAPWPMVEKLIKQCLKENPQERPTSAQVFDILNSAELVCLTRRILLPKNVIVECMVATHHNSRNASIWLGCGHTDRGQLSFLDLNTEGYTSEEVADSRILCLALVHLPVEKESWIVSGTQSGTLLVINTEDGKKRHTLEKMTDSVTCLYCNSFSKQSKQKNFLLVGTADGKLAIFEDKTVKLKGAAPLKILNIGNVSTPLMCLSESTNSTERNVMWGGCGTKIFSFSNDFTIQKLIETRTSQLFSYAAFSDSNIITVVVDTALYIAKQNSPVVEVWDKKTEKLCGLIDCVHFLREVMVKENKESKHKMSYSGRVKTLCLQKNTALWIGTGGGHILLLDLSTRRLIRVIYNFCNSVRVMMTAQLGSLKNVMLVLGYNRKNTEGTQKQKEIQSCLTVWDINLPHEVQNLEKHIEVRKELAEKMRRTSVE
Source text: (§1) Exemplary Assay for Testing LRRK2 Degradation Driven by Exemplary Hetero-Bifunctional Compounds Designed to Target LRRK2
(§2) The assay measures the degradation of wildtype and G2019S LRRK2 tagged with a HiBit tag on the C-terminus of the protein that was expressed from a mammalian expression vector, driven by the ubiquitin promoter in HEK293 cells. Each compound dose-response was repeated on two separate days, on three separate plates each day.
(§3) Plasmid Preparation. Transfection mixes were assembled as follows and incubated for 30 minutes at room temperature. In a 15 mL tube, 5.25 mL Opti-MEM (no additions) was mixed with 17 μL Firefly Luciferase plasmid at 1 μg/μL and 158 μL WT plasmid DNA at 1 μg/μL (175 μg total DNA) were mixed by flicking. In a new 15 mL tube, 5.25 mL OptiMEM was mixed with 17 μL Firefly Luciferase plasmid at 1 μg/μL and 158 μL G2019S plasmid DNA at 1 μg/μL (175 μg total DNA) were mixed by flicking. X-tremeGene HP was mixed thoroughly using a vortex. Next, 175 μL was added to each tube and flicked to mix. Both tubes were left to incubate for 30 minutes at room temperature.
(§4) While the transfection mixes were incubating, HEK293 cells (acquired from ATCC; ATCC CRL-1573) were harvested with trypsin. Once cells are detached, the cells were resuspended in 12 mL OptiMEM+5% FBS and transferred to a 50 mL tube. The cells were mixed well and counted. Using OptiMEM+5% FBS, the cells were diluted in two 250 mL conical tubes at 0.71×10^6 cells/mL in 70 mL. One tube was labeled “WT” and the other “G2019S”. The WT and G2019S transfection mixes were added dropwise to the corresponding 250 mL tubes. The tubes were mixed first by pipetting then by swirling. The tubes were incubated at room temperature for at least 5 minutes.
(§5) Each tube was swirled before dispensing and after every three plates. Seventy microliters of cells were dispensed with WT or G2019S DNA to seven plates each. Three plates of each were tested with compound plate one (preparation described below) and three plates of each were tested with compound plate two (preparation described below). The first plate from each set served as a “prime” plate and was not used to test compounds. Each plate was incubated in the hood for 10 minutes before placing in the 37° C. incubator for 24 hours.
(§6) Preparation of Compound and Assay Plates. Two compound plates were made using 96 well polypropylene plates. Compounds were made up at 10 mM and were diluted to 1 mM in 30 μL. Each dose response curve included a well of DMSO, as a negative control and for normalization, and a well of 0.5 μM of Compound 4 as a positive control. In addition to seven test compounds, each plate also included a dose response of Compound 4. The compound plates were spun down along at 1200 rpm for 2 minutes.
(§7) The two compound plates were then mixed and 2 μL was diluted in intermediate plates having 248 μL of Opti-Mem in each well. Next, 10 μL diluted compounds from the intermediate plates were added to each test plate (three WT and three G2019S plates per compound plate for a total of 12 assay plates). The plates were incubated for 24 hours at 37° C.
(§8) All assay plates and all Nano-Glo Dual-Luciferase Reporter Assay System components (except for the DLR substrate) were equilibrated to room temperature. Next, the luciferase buffer was mixed with the lyophilized amber bottle until fully dissolved, and 75 μL of the luciferase mixture was added to each well of each assay plate. The assay plates were incubated for 10 minutes at room temperature with shaking for at least 5 minutes, and then read on a plate reader.
(§9) Developing Plates and Analyzing Data. One milliliter of DLR substrate and 1 mL LgBiT Protein were added to the Stop and Glo buffer, and 75 μL of the mixture was added to each well of each plate. Optically clear seals were added to each plate and each plate was incubated for 20 minutes with shaking for at least 10 minutes, and then read on a plate reader. […]

[2] = target: T2, wildtype LRRK2 (Homo sapiens, UniProt Q5S007); assay: LRRK2 degradation assay, HiBit-tagged wildtype LRRK2 expressed from plasmid in HEK293 cells (Nano-Glo Dual-Luciferase); format: cell-based; details: 24 hours; for Dmax: read-out: **WT Dmax (%); for DC50: read-out: *WT DC50
T2 construct: expressed in transfected cells; host or cells: HEK293 (ATCC CRL-1573), transient transfection, mammalian expression vector with ubiquitin promoter
T2 sequence (Q5S007 whole entry): as the sequence (Q5S007 whole entry G2019S) above, with S2019G counted along it
Source text: as §1, §2, §3, §4, §5, §6, §7, §8, §9

[3] = HiBit-tagged G2019S LRRK2, HEK293 cells
[4] = HiBit-tagged wildtype LRRK2, HEK293 cells
[5] = HiBit-tagged G2019S LRRK2 in HEK293 cells
[6] = HiBit-tagged wildtype LRRK2 in HEK293 cells

| DC50 [1, 3] | Dmax [1, 3] | Dmax [2, 4] | DC50 [2, 4] | DC50 [1, 5] | Dmax [1, 5] | Dmax [2, 6] | DC50 [2, 6] | SMILES |
| --- | --- | --- | --- | --- | --- | --- | --- | --- |
| 10 to 50 nM | 50 to 70% | 50 to 70% | 10 to 50 nM |  |  |  |  | CC1(Oc2ccc3n[nH]c(-c4cc(N5CCN(CC6CC7(CCN(CC8CCN(c9ccc%10c(c9)C(=O)N(C9CCC(=O)NC9=O)C%10=O)CC8)CC7)C6)CC5)ncn4)c3c2)CC1 (centres unmarked) [Compound 177, 2-(2,6-dioxo-3-piperidyl)-5-[4-[[2-[[4-[6-[5-(1-methylcyclopropoxy)-2H-indazol-3-yl]pyrimidin-4-yl]piperazin-1-yl]methyl]-7-azaspiro[3.5]nonan-7-yl]methyl]-1-piperidyl]isoindoline-1,3-dione] |
|  |  |  |  | < 10 nM | 50 to 70% | < 50% | < 10 nM | CC1(Oc2ccc3n[nH]c(-c4cc(N5CCN(CC6(F)CCN(CC7CN(c8ccc9c(c8)C(=O)N(C8CCC(=O)NC8=O)C9=O)C7)CC6)CC5)ncn4)c3c2)CC1 (centres unmarked) [Compound 135, 2-(2,6-dioxo-3-piperidyl)-5-[3-[[4-fluoro-4-[[4-[6-[5-(1-methylcyclopropoxy)-2H-indazol-3-yl]pyrimidin-4-yl]piperazin-1-yl]methyl]-1-piperidyl]methyl]azetidin-1-yl]isoindoline-1,3-dione] |
|  |  |  |  | 10 to 50 nM | < 50% | < 50% | < 10 nM | CC1(Oc2ccc3[nH]nc(-c4cc(N5CCN(CC67CC(CN8CCN(c9ccc%10c(c9)C(=O)N(C9CCC(=O)NC9=O)C%10=O)CC8)(C6)C7)CC5)ncn4)c3c2)CC1 (centres unmarked) [Compound 124, 2-(2,6-dioxo-3-piperidyl)-5-[4-[[3-[[4-[6-[5-(1-methylcyclopropoxy)-2H-indazol-3-yl]pyrimidin-4-yl]piperazin-1-yl]methyl]-1-bicyclo[1.1.1]pentanyl]methyl]piperazin-1-yl]isoindoline-1,3-dione] |
| < 10 nM | 50 to 70% | 50 to 70% | < 10 nM |  |  |  |  | CC1(Oc2ccc3n[nH]c(-c4cc(N5CCN(Cc6ccc(CN7CCN(c8ccc9c(c8)C(=O)N(C8CCC(=O)NC8=O)C9=O)CC7)nn6)CC5)ncn4)c3c2)CC1 (centres unmarked) [Compound 172, 2-(2,6-dioxo-3-piperidyl)-5-[4-[[6-[[4-[6-[5-(1-methylcyclopropoxy)-2H-indazol-3-yl]pyrimidin-4-yl]piperazin-1-yl]methyl]pyridazin-3-yl]methyl]piperazin-1-yl]isoindoline-1,3-dione] |
|  |  |  |  | < 10 nM | 50 to 70% | < 50% | < 10 nM | CC1(Oc2ccc3[nH]nc(-c4ccnc(N5CCN(CC6(F)CCN(CC7CCN(c8ccc9c(c8)C(=O)N(C8CCC(=O)NC8=O)C9=O)CC7)CC6)CC5)c4)c3c2)CC1 (centres unmarked) [Compound 80, 2-(2,6-dioxo-3-piperidyl)-5-[4-[[4-fluoro-4-[[4-[4-[5-(1-methylcyclopropoxy)-1H-indazol-3-yl]-2-pyridyl]piperazin-1-yl]methyl]-1-piperidyl]methyl]-1-piperidyl]isoindoline-1,3-dione] |
| < 10 nM | ≥ 70% | ≥ 70% | < 10 nM |  |  |  |  | CC1(Oc2ccc3[nH]nc(-c4cc(N5CCN(C[C@@H]6CN(CCC7CCN(c8ccc9c(c8)C(=O)N(C8CCC(=O)NC8=O)C9=O)CC7)CCO6)CC5)ncn4)c3c2)CC1 (stereo partly drawn) [Compound 158, 2-(2,6-dioxo-3-piperidyl)-5-[4-[2-[(2R)-2-[[4-[6-[5-(1-methylcyclopropoxy)-1H-indazol-3-yl]pyrimidin-4-yl]piperazin-1-yl]methyl]morpholin-4-yl]ethyl]-1-piperidyl]isoindoline-1,3-dione] |

Second part, the compound before the results:

| SMILES | DC50 [1, 3] | Dmax [1, 3] | Dmax [2, 4] | DC50 [2, 4] | DC50 [1, 5] | Dmax [1, 5] | Dmax [2, 6] | DC50 [2, 6] |
| --- | --- | --- | --- | --- | --- | --- | --- | --- |
| CC1(Oc2ccc3[nH]nc(-c4ccnc(N5CCC(O[C@H]6CC[C@H](OC7CCN(c8ccc9c(c8)C(=O)N(C8CCC(=O)NC8=O)C9=O)CC7)CC6)CC5)c4)c3c2)CC1 (some centres unmarked) [Compound 100, 2-(2,6-dioxopiperidin-3-yl)-5-(4-{[(1r,4r)-4-[(1-{4-[5-(1-methylcyclopropoxy)-1H-indazol-3-yl]pyridin-2-yl}piperidin-4-yl)oxy]cyclohexyl]oxy}piperidin-1-yl)-2,3-dihydro-1H-isoindole-1,3-dione] |  |  |  |  | 10 to 50 nM | 50 to 70% | < 50% | 10 to 50 nM |
| CC1(Oc2ccc3[nH]nc(-c4cc(N5CCC(O[C@H]6CC[C@H](OC7CCN(c8ccc9c(c8)C(=O)N(C8CCC(=O)NC8=O)C9=O)CC7)CC6)CC5)ncn4)c3c2)CC1 (some centres unmarked) [Compound 108, 2-(2,6-dioxo-3-piperidyl)-5-[4-[4-[[1-[6-[5-(1-methylcyclopropoxy)-1H-indazol-3-yl]pyrimidin-4-yl]-4-piperidyl]oxy]cyclohexoxy]-1-piperidyl]isoindoline-1,3-dione] |  |  |  |  | 10 to 50 nM | < 50% | 50 to 70% | 10 to 50 nM |
| CC1(Oc2ccc3[nH]nc(-c4cc(N5CCC(CN6CC[C@@H](OC7CCN(c8ccc9c(c8)C(=O)N(C8CCC(=O)NC8=O)C9=O)CC7)C6)CC5)ncn4)c3c2)CC1 (stereo partly drawn) [Compound 119, 2-(2,6-dioxopiperidin-3-yl)-5-(4-{[(3R)-1-[(1-{6-[5-(1-methylcyclopropoxy)-1H-indazol-3-yl]pyrimidin-4-yl}piperidin-4-yl)methyl]pyrrolidin-3-yl]oxy}piperidin-1-yl)-2,3-dihydro-1H-isoindole-1,3-dione] |  |  |  |  | < 10 nM | < 50% | < 50% | < 10 nM |
| CC1(Oc2ccc3[nH]nc(-c4ccnc(N5CCC(C(=O)N6CCC(CN7CCN(c8ccc9c(c8)C(=O)N(C8CCC(=O)NC8=O)C9=O)CC7)CC6)CC5)c4)c3c2)CC1 (centres unmarked) [Compound 87, 2-(2,6-dioxo-3-piperidyl)-5-[4-[[1-[1-[4-[5-(1-methylcyclopropoxy)-1H-indazol-3-yl]-2-pyridyl]piperidine-4-carbonyl]-4-piperidyl]methyl]piperazin-1-yl]isoindoline-1,3-dione] |  |  |  |  | < 10 nM | < 50% | < 50% | < 10 nM |
| CC1(Oc2ccc3n[nH]c(-c4cc(N5CCC(Cc6ccc(CC7CCN(c8ccc9c(c8)C(=O)N(C8CCC(=O)NC8=O)C9=O)CC7)cc6)CC5)ncn4)c3c2)CC1 (centres unmarked) [Compound 171, 2-(2,6-dioxo-3-piperidyl)-5-[4-[[4-[[1-[6-[5-(1-methylcyclopropoxy)-2H-indazol-3-yl]pyrimidin-4-yl]-4-piperidyl]methyl]phenyl]methyl]-1-piperidyl]isoindoline-1,3-dione] | ≥ 100 nM | < 50% |  | ≥ 100 nM |  |  |  |  |
| CC1(Oc2ccc3[nH]nc(-c4cc(N5CCC(CN6CC7(CN(CC8CCN(c9ccc%10c(c9)C(=O)N(C9CCC(=O)NC9=O)C%10=O)CC8)C7)C6)CC5)ncn4)c3c2)CC1 (centres unmarked) [Compound 175, 2-(2,6-dioxo-3-piperidyl)-5-[4-[[2-[[1-[6-[5-(1-methylcyclopropoxy)-1H-indazol-3-yl]pyrimidin-4-yl]-4-piperidyl]methyl]-2,6-diazaspiro[3.3]heptan-6-yl]methyl]-1-piperidyl]isoindoline-1,3-dione] | < 10 nM | 50 to 70% | 50 to 70% | < 10 nM |  |  |  |  |
